Counter-ions that a name gives are not always drawn.

Consider nine compounds from patent US7119207B2, “Benzoamide piperidine containing compounds and related compounds” (Pfizer INC, priority 2000, dated 2006).

Turning to `COc1cc2c(cc1CNC1CCCNC1c1ccccc1)NC(=O)CC2` (stereo not drawn) (as salt: HCl) [Example 1, 6-Methoxy-7-[(2-phenyl-piperidin-3-ylamino)-methyl]-3,4-dihydro-1H-quinolin-2-one], the melting point (as a rule, the temperature of the solid-liquid transition) fell in the range of 233 to 235 °C. Then `CCN1C(=O)CCc2cc(OC)c(CNC3CCCNC3c3ccccc3)cc21` (stereo not drawn) (as salt: hydrochloride) [Example 2, 1-Ethyl-6-methoxy-7-[(2-phenyl-piperidin-3-ylamino)-methyl]-3,4-dihydro-1H-quinolin-2-one], with 253 to 255 °C; and `COc1cc2c(cc1CNC1CCCNC1c1ccccc1)N(S(C)(=O)=O)C(=O)CC2` (stereo not drawn) (as salt: hydrochloride) [Example 3, 1-Methanesulfonyl-6-methoxy-7-[(2-phenyl-piperidin-3-ylamino)-methyl]-3,4-dihydro-1H-quinolin-2-one], with 237 to 241 °C; and `COc1cc2c(cc1CNC1CCCNC1c1ccccc1)N(C)C(=O)CC2(C)C` (stereo not drawn) (as salt: hydrochloride) [Example 4, 6-Methoxy-1,4,4-trimethyl-7-[(2-phenyl-piperidin-3-ylamino)-methyl]-3,4-dihydro-1H-quinolin-2-one], with over 280 °C. Then `COc1cc2c(c(F)c1CNC1CCCNC1c1ccccc1)N(C)C(=O)CC2(C)C` (stereo not drawn) (as salt: hydrochloride) [Example 5, 8-Fluoro-6-methoxy-1,4,4-trimethyl-7-[(2-phenyl-piperidin-3-ylamino)-methyl]-3,4-dihydro-1H-quinolin-2-one], with over 270 °C; and `COc1cc2c(cc1CN[C@H]1CCCN(C(=O)C(F)(F)F)[C@H]1c1ccccc1)N(C)C(=O)CC2` (as salt: hydrochloride) [Example 10, 6-Methoxy-1-methyl-7-[(2S,3S)-(2-phenyl-1-trifluoroacetyl-piperidin-3-ylamino)-methyl]-3,4-dihydro-1H-quinolin-2-one], with 222 to 224 °C (dec.).

In the case of `COc1cc2c(cc1CN[C@H]1CCCN(C)[C@H]1c1ccccc1)C(C)(C)C(=O)N2C` (as salt: hydrochloride) [Example 14, 5-[{(2S,3S)-1-Methyl-2-phenyl-piperidin-3-ylamino}-methyl]-6-methoxy-1,3,3-trimethyl-1,3-dihydro-indol-2-one], the melting point was > 250 °C (dec.).

Turning to `COc1cc2c(cc1CN[C@H]1CCCN(Cc3n[nH]c(=O)[nH]3)[C@H]1c1ccccc1)C(C)(C)C(=O)N2C` [Example 18, 6-Methoxy-1,3,3-trimethyl-5-{[(2S,3S)-1-(5-oxo-4,5-dihydro-1H-[1,2,4]triazol-3-ylmethyl)-2-phenyl-piperidin-3-ylamino]-methyl}-1,3-dihydro-indol-2-one], the melting point was > 250 °C (dec.).

Take `CCC1CCC(NCc2cc3c(cc2OC)C2CC2C(=O)N3C)C(c2ccccc2)N1` (stereo not drawn) [Example 85, 5-[(6-Ethyl-2-phenyl-piperidin-3-ylamino)-methyl]-6-methoxy-3-methyl-1,1a,3,7b-tetrahydro-3-aza-cyclopropa[a]naphthalen-2-one]: the melting point is 231 to 234 °C (dec.).
